Assay: Solubility in water
Type: physicochemical
Procedure: The dosage of the amount of Medroxy progesterone acetate thus dissolved in water was determined by spectrophotometry at 241 nm.

Q: With `CC(=O)O[C@]1(C(C)=O)CC[C@H]2[C@@H]3C[C@H](C)C4=CC(=O)CC[C@]4(C)[C@H]3CC[C@@]21C` [Medroxy progesterone acetate] as the compound, how does the solubility in water read?
A: The solubility in water was “very low”.

Source: patent USRE39104E1, “Process for the production of dry pharmaceutical forms and the thus obtained pharmaceutical compositions” (Laboratoires Effik, priority 1994, dated 2006)
